Results published in US12350247B2, “Use of APE1/Ref-1 inhibitors for treatment of retinal diseases” (Indiana University Research and Technology Corporation, priority 2017, dated 2025).

What was measured:
Pa03C = test: 3D tumor spheroid culture growth (fluorescence intensity)
[1] = test system: patient-derived Pa03C tumors with CAFs; test: Flank co-culture model of PDAC, APX3330 and Ruxolitinib; assay type: in vivo, mice
Experimental: Treatment of the implanted tumors started on day 11 post implant. Particularly, the co-cultures implanted included 2.5×10^6 tumor cells +/−5 ×10^6 CAFs, providing a 1:2 ratio of tumor cell to CAF. […] The mice were then administered either 50 mg/kg APX3330 BID in 4% Cr:EtOH, 50 mg/kg Rux SID pm in 4% Cr:EtOH, or combinations of the agents. Treatment schedule consisted of treating for 5 days and then giving 2 days off treatment until the tumors reached an average size of 2000 mm^3.

[2] = test system: human carcinoma colon cell line HCT-116; test: Alamar blue cytotoxicity combination assay (CalcuSyn); assay type: cell-based
Experimental: HTC-116 (Yunhua Liu) was seeded in a 96-well tissue culture plate at 2000 cells/well in DMEM+10% FBS and grown overnight at 37° C., 5% CO2. Drug Media DMEM+5% FBS was added at dosages of APX3330 (Apexian) in a 5-point spread from 75 uM to 6.3 uM and spiked with CPI-613 (Apexbio Technology) at 75 uM, or 50 uM, or alone for single agent. Cells were incubated for 72 hours at 37° C., 5% CO2. Media was exchanged with DMEM+5% FBS+10% Alamar blue fluorescent cell viability indicator (INVITROGEN™) and incubated 4 hours at 37° C., 5% CO2 and then read on a fluorescent reader (SYNERGY™ H4 BioTek). […] depicts Chou-Talalay Index (CI) of dose combinations (CalcuSyn). FIG. 32E depicts synergistic drug combinations (CalcuSyn) of APX3330 spiked with 50 uM CPI-613 or 75 uM CPI-613. […] Data shown is the average of 3 separate cytotoxicity assays; each assay normalized to media only control.
HTC-116 (Yunhua Liu) was seeded in a 96-well tissue culture plate at 2000 cells/well in DMEM+10% FBS and grown overnight at 37° C., 5% CO2. Drug Media DMEM+5% FBS was added at dosages of APX3330 (Apexian) from 100 uM to 0.4 uM in a 10-point spread and spiked with CPI-613 (Apexbio Technology) at 100 uM, or 75 uM, or alone for single agent. Cells were incubated for 72 hours at 37° C., 5% CO2. Media was exchanged with DMEM+5% FBS+10% Alamar blue fluorescent cell viability indicator (INVITROGEN™) and incubated 4 hours at 37° C., 5% CO2 and then read on a fluorescent reader (SYNERGY™ H4 BioTek). […] FIG. 33D depicts Chou-Talalay Index (CI) of dose combinations (CalcuSyn). FIG. 33E depicts synergistic drug combinations (CalcuSyn) of APX3330 spiked with 100 uM CPI-613 or 75 uM CPI-613. […] Data shown is the average of 3 separate cytotoxicity assays; each assay normalized to media only control.
HTC-116 (Yunhua Liu) was seeded in a 96-well tissue culture plate at 2000 cells/well in DMEM+10% FBS and grown overnight at 37° C., 5% CO2. Drug Media DMEM+5% FBS was added at dosages of APX2014 (Apexian) in a 5-point spread from 25 uM to 1.6 uM and spiked with CPI-613 (Apexbio Technology) at 75 uM, or 50 uM, or alone for single agent. Cells were incubated for 72 hours at 37° C., 5% CO2. Media was exchanged with DMEM+5% FBS+10% Alamar blue fluorescent cell viability indicator (INVITROGEN™) and incubated 4 hours at 37° C., 5% CO2 and then read on a fluorescent reader (SYNERGY™ H4 BioTek). […] FIG. 34D depicts Chou-Talalay Index (CI) of dose combinations (CalcuSyn). FIG. 34E depicts synergistic drug combinations (CalcuSyn) of APX2014 spiked with 50 uM CPI-613 or 75 uM CPI-613. Drug combination synergy could not be ascertained at APX2014 dosages when spiked with 50 uM CPI-613. […] Data shown is the average of 3 separate cytotoxicity assays; each assay normalized to media only control.
HTC-116 (Yunhua Liu) was seeded in a 96-well tissue culture plate at 2000 cells/well in DMEM+10% FBS and grown overnight at 37° C., 5% CO2. Drug Media DMEM+5% FBS was added at dosages of APX3330 (Apexian) from 100 uM to 0.4 uM in a 10-point spread and spiked with CB-839 (Sigma-Aldrich) at 1000 nM, or 500 nM, or alone for single agent. Cells were incubated for 72 hours at 37° C., 5% CO2. Media was exchanged with DMEM+5% FBS+10% Alamar blue fluorescent cell viability indicator (INVITROGEN™) and incubated 4 hours at 37° C., 5% CO2 and then read on a fluorescent reader (SYNERGY™ H4 BioTek). FIG. 35A depicts APX3330 and CB-839 single agent effects. FIG. 35B depicts APX3330 and CB-839 synergistic combo effects. […] FIG. 35E depicts synergistic drug combinations (CalcuSyn) of APX3330 spiked with 1000 nM CB-839 or 500 nM CB-839 (5-pt only). […] Data shown is the average of 3 separate cytotoxicity assays; each assay normalized to media only control.

CCCCCCCCC/C(=C\C1=C(C)C(=O)C(OC)=C(OC)C1=O)C(=O)O [APX3330]
effect of gemcitabine with APX3330 on tumor (Pa03C; Pa03C in co-culture with CAFs, APX3330 50 μM): dose-dependent combination effect
CC50 (Pa03C; read-out: LC50, 3D Cultures, Tumor Alone, Pa03C, D12 curves): 37.9 µM
tumor volume ([1]; Ruxolitinib (Rux) in combination with APX3330): reduction in tumor volume
average tumor size ([1]; combination therapy: 50 mg/kg APX3330 BID with 50 mg/kg Rux SID, day 31): 1200 mm^3
average tumor size ([1]; treatment alone, 50 mg/kg, day 28): 1750 mm³
drug combination synergy (Chou-Talalay, CalcuSyn) ([2]; APX3330 75 uM and 50 uM spiked with 50 uM CPI-613, 5-point spread): synergy was observed
drug combination synergy (Chou-Talalay, CalcuSyn) ([2]; APX3330 100 uM-12.5 uM spiked with 75 uM CPI-613, 10-point spread): Synergy was observed
drug combination synergy (Chou-Talalay, CalcuSyn) ([2]; APX3330 100 uM-25 uM spiked with 1000 nM CB-839): synergy was observed
drug combination synergy (Chou-Talalay, CalcuSyn) ([2]; APX3330 100 uM-50 uM spiked with 500 nM CB-839): Synergy was observed
drug combination synergy (Chou-Talalay, CalcuSyn) ([2]; all APX3330 dosages (100 uM to 0.4 uM) spiked with 100 uM CPI-613, 10-point spread): synergy was observed
drug combination synergy (Chou-Talalay, CalcuSyn) ([2]; all but one APX3330 dosage (6.3 uM), spiked with 75 uM CPI-613, 5-point spread): Synergy was observed
